Test results published in patent US6410685B1, “Antistress agents and functional foods” (Calpis Co., Ltd., priority 1997, dated 2002).
Marks after values point to notes of the source that are not given here.

System: Wister rats exposed to cold stress
Assay: Blood pressure by tail-cuff method in rats exposed to cold stress
Format: in vivo, rat
Conditions: Example 5, day 10, 3 mg/kg body weight of single tripeptide oral
Source text: 24 male Wister rats (body weight about 300 g) were preliminarily fed for one week. During the preliminary feeding period and the experimental period, the rats were restrictively fed with commercial diet (trade name “CE-2” manufactured by NIHON CREA CO.), and allowed to take water ad libitum.
After the preliminary feeding period, the rats were divided into three groups (eight rats each), namely, (1) the group not exposed to stress and given saline, (2) the group exposed to stress and given saline, and (3) the group exposed to stress, and given VPP and IPP. The animals of groups (2) and (3) were exposed to stress for 9 days by putting them in a cold room (4° C.) for 4 hours per one day.
On the day 10, rats of groups (1) and (2) were given 1 ml of saline, and rats of group (3) were given 1 ml of saline containing 3 mg/kg body weight each of IPP and VPP synthesized in Example 3, by forcible administration into stomach via an oral sonde. After the administration, the rats of groups (2) and (3) were exposed to cold stress for 4 hours. Two hours after finishing the stress loading, blood pressure of the rats in each group was measured by tail-cuff method using a non-warming, non-invasive rat sphygmomanometer (Type PE-300, manufactured by CSI CO.).
After the preliminary feeding period, the rats were divided into three groups (eight rats each), namely, (1) the group given saline, (2) the group given VPP, and (3) the group given IPP. The rats of groups (1) to (3) were exposed to stress for 9 days by, as in Example 4, putting them in a cold room (4° C.) for 4 hours per one day.
On the day 10, rats of group (1) were given 1 ml of saline, and rats of group (2) and (3) were given 1 ml of saline containing 3 mg/kg body weight of IPP or 3 mg/kg body weight of VPP, respectively, synthesized in Example 3, by forcible administration into stomach via an oral sonde. After the administration, the rats of groups (1) to (3) were exposed to cold stress for 4 hours, and blood pressure was measured as in Example 4.
The test was carried out in the same way as in Example 5 except that the group (1) rats were given 2 ml of saline, and the rats in group (2) were given 5 ml/kg body weight of the fermented milk obtained in Example 1, and the rats in group (3) were given 2 ml of saline containing 150 mg/kg of the purified tripeptide fraction powders obtained in Example 2, respectively. After the administration of the samples and exposure to stress, the blood pressure of each rat was measured.

| Substance | Diastolic Blood Pressure | Systolic Blood Pressure |
| --- | --- | --- |
| Ile-Pro-Pro [IPP] | 102* mmHg | 130* mmHg |
| Val-Pro-Pro [VPP] | 101* mmHg | 131* mmHg |
